Laboratory results: US7417156B2, “Orally active, antimalarial, anticancer, artemisinin-derived trioxane dimers” (Johns Hopkins University, priority 2002, dated 2008)

Tests used:
[1] = tested on: chloroquine-sensitive P. falciparum (NF54); experiment: Antimalarial activity in vitro, [3H]hypoxanthine incorporation; assay type: cell-based; settings: Table I; NF54 strain; read-out: IC50
60 cell line panel = assay type: cell-based
K-562 = experiment: NCI 60 cell line panel screen (SRB); assay type: cell-based, human
RPMI-8226 = experiment: NCI 60 cell line panel screen (SRB); assay type: cell-based, human
EKVX = experiment: NCI 60 cell line panel screen (SRB); assay type: cell-based, human
HOP-62 = experiment: NCI 60 cell line panel screen (SRB); assay type: cell-based, human
HOP-92 = experiment: NCI 60 cell line panel screen (SRB); assay type: cell-based, human
NCI-H23 = experiment: NCI 60 cell line panel screen (SRB); assay type: cell-based, human
NCI-H322M = assay type: cell-based
NCI-H460 = experiment: NCI 60 cell line panel screen (SRB); assay type: cell-based, human
HCT-116 = experiment: NCI 60 cell line panel screen (SRB); assay type: cell-based, human
HT29 = experiment: NCI 60 cell line panel screen (SRB); assay type: cell-based, human
SF-539 = experiment: NCI 60 cell line panel screen (SRB); assay type: cell-based, human
SNB-19 = experiment: NCI 60 cell line panel screen (SRB); assay type: cell-based, human
SNB-75 = experiment: NCI 60 cell line panel screen (SRB); assay type: cell-based, human
SK-MEL-28 = experiment: NCI 60 cell line panel screen (SRB); assay type: cell-based, human
UACC-257 = experiment: NCI 60 cell line panel screen (SRB); assay type: cell-based, human
IGROVI = experiment: NCI 60 cell line panel screen (SRB); assay type: cell-based, human
OVCAR-3 = experiment: NCI 60 cell line panel screen (SRB); assay type: cell-based, human
OVCAR-8 = experiment: NCI 60 cell line panel screen (SRB); assay type: cell-based, human
SK-OV-3 = experiment: NCI 60 cell line panel screen (SRB); assay type: cell-based, human
CAKI-1 = experiment: NCI 60 cell line panel screen (SRB); assay type: cell-based, human
RXF 393 = experiment: NCI 60 cell line panel screen (SRB); assay type: cell-based, human
PC-3 = experiment: NCI 60 cell line panel screen (SRB); assay type: cell-based, human
NCI/ADR-RES = experiment: NCI 60 cell line panel screen (SRB); assay type: cell-based, human
BT-549 = experiment: NCI 60 cell line panel screen (SRB); assay type: cell-based, human
T-47D = experiment: NCI 60 cell line panel screen (SRB); assay type: cell-based, human
[2] = mean value over the 60 cell line panel

CC1CCC2C(C)C(CC(COC(=O)CCC(=O)O)CC3OC4OC5(C)CCC6C(C)CCC(C3C)C46OO5)OC3OC4(C)CCC1C32OO4 (stereo not shown) [Compound 8a, bis-trioxane primary succinate monoester]
IC50 [1]: 2 nM
Log10GI50 Delta (60 cell line panel): 1.29
Log10GI50 Range (60 cell line panel): 4.00
Log10LC50 Delta (60 cell line panel; 60 cell line panel): 0.46
Log10LC50 Range (60 cell line panel; 60 cell line panel): 0.48
Log10TGI50 Delta (60 cell line panel; 60 cell line panel): 3.26
Log10TGI50 Range (60 cell line panel; 60 cell line panel): 4.00
growth inhibition in words (60 cell line panel; colon cancer KM12, ovarian cancer OVCAR 3, breast cancer MDA-MB-435): selectively and strong inhibitory
Log10GI50 MG MID (60 cell line panel; mean over panel): −7.01
Log10LC50 MG MID (60 cell line panel; [2]): −4.32 log10M
Log10TGI50 MG MID (60 cell line panel; [2]): −5.04 log10M
Log10LC50 (K-562; K-562 (Leukemia), LC50: PG=−50): >−4.30 log10M
Log10TGI50 (K-562; K-562 (Leukemia), TGI: PG=0): >−4.30 log10M
Log10GI50 (K-562; Leukemia, K-562): <−8.30
Log10GI50 (RPMI-8226; Leukemia, RPMI-8226): <−8.30
Log10LC50 (RPMI-8226; RPMI-8226 (Leukemia), LC50: PG=−50): >−4.30 log10M
Log10TGI50 (RPMI-8226; RPMI-8226 (Leukemia), TGI: PG=0): −6.19 log10M
Log10LC50 (EKVX; EKVX (Non-Small Cell Lung Cancer), LC50: PG=−50): >−4.30 log10M
Log10TGI50 (EKVX; EKVX (Non-Small Cell Lung Cancer), TGI: PG=0): −5.47 log10M
Log10GI50 (EKVX; Non-Small Cell Lung Cancer, EKVX): −6.90
Log10LC50 (HOP-62; HOP-62 (Non-Small Cell Lung Cancer), LC50: PG=−50): >−4.30 log10M
Log10TGI50 (HOP-62; HOP-62 (Non-Small Cell Lung Cancer), TGI: PG=0): >−4.30 log10M
Log10GI50 (HOP-62; Non-Small Cell Lung Cancer, HOP-62): −6.34
Log10LC50 (HOP-92; HOP-92 (Non-Small Cell Lung Cancer), LC50: PG=−50): >−4.30 log10M
Log10TGI50 (HOP-92; HOP-92 (Non-Small Cell Lung Cancer), TGI: PG=0): >−4.30 log10M
Log10GI50 (HOP-92; Non-Small Cell Lung Cancer, HOP-92): −6.56
Log10LC50 (NCI-H23; NCI-H23 (Non-Small Cell Lung Cancer), LC50: PG=−50): >−4.30 log10M
Log10TGI50 (NCI-H23; NCI-H23 (Non-Small Cell Lung Cancer), TGI: PG=0): >−4.30 log10M
Log10GI50 (NCI-H23; Non-Small Cell Lung Cancer, NCI-H23): <−8.30
Log10TGI50 (NCI-H322M; NCI-H322M (Non-Small Cell Lung Cancer), TGI: PG=0): >−4.30 log10M
Log10GI50 (NCI-H322M; Non-Small Cell Lung Cancer, NCI-H322M): −5.11
Log10LC50 (NCI-H460; NCI-H460 (Non-Small Cell Lung Cancer), LC50: PG=−50): >−4.30 log10M
Log10TGI50 (NCI-H460; NCI-H460 (Non-Small Cell Lung Cancer), TGI: PG=0): >−4.30 log10M
Log10GI50 (NCI-H460; Non-Small Cell Lung Cancer, NCI-H460): <−8.30
Log10GI50 (HCT-116; Colon Cancer, HCT-116): <−8.30
Log10LC50 (HCT-116; HCT-116 (Colon Cancer), LC50: PG=−50): >−4.30 log10M
Log10TGI50 (HCT-116; HCT-116 (Colon Cancer), TGI: PG=0): >−4.30 log10M
Log10GI50 (HT29; Colon Cancer, HT29): <−8.30
Log10LC50 (HT29; HT29 (Colon Cancer), LC50: PG=−50): >−4.30 log10M
Log10TGI50 (HT29; HT29 (Colon Cancer), TGI: PG=0): >−4.30 log10M
Log10GI50 (SF-539; CNS Cancer, SF-539): −5.27
Log10LC50 (SF-539; SF-539 (CNS Cancer), LC50: PG=−50): >−4.30 log10M
Log10TGI50 (SF-539; SF-539 (CNS Cancer), TGI: PG=0): >−4.30 log10M
Log10GI50 (SNB-19; CNS Cancer, SNB-19): −5.62
Log10LC50 (SNB-19; SNB-19 (CNS Cancer), LC50: PG=−50): >−4.30 log10M
Log10TGI50 (SNB-19; SNB-19 (CNS Cancer), TGI: PG=0): >−4.30 log10M
Log10GI50 (SNB-75; CNS Cancer, SNB-75): −6.47
Log10LC50 (SNB-75; SNB-75 (CNS Cancer), LC50: PG=−50): >−4.30 log10M
Log10TGI50 (SNB-75; SNB-75 (CNS Cancer), TGI: PG=0): >−4.30 log10M
Log10GI50 (SK-MEL-28; Melanoma, SK-MEL-28): −6.09
Log10LC50 (SK-MEL-28; SK-MEL-28 (Melanoma), LC50: PG=−50): >−4.30 log10M
Log10TGI50 (SK-MEL-28; SK-MEL-28 (Melanoma), TGI: PG=0): >−4.30 log10M
Log10GI50 (UACC-257; Melanoma, UACC-257): −5.02
Log10LC50 (UACC-257; UACC-257 (Melanoma), LC50: PG=−50): >−4.30 log10M
Log10TGI50 (UACC-257; UACC-257 (Melanoma), TGI: PG=0): >−4.30 log10M
Log10LC50 (IGROVI; IGROVI (Ovarian Cancer), LC50: PG=−50): >−4.30 log10M
Log10TGI50 (IGROVI; IGROVI (Ovarian Cancer), TGI: PG=0): >−4.30 log10M
Log10GI50 (IGROVI; Ovarian Cancer, IGROVI): −5.07
Log10LC50 (OVCAR-3; OVCAR-3 (Ovarian Cancer), LC50: PG=−50): >−4.30 log10M
Log10TGI50 (OVCAR-3; OVCAR-3 (Ovarian Cancer), TGI: PG=0): −8.21 log10M
Log10GI50 (OVCAR-3; Ovarian Cancer, OVCAR-3): <−8.30
Log10LC50 (OVCAR-8; OVCAR-8 (Ovarian Cancer), LC50: PG=−50): >−4.30 log10M
Log10TGI50 (OVCAR-8; OVCAR-8 (Ovarian Cancer), TGI: PG=0): >−4.30 log10M
Log10GI50 (OVCAR-8; Ovarian Cancer, OVCAR-8): >−4.30
Log10GI50 (SK-OV-3; Ovarian Cancer, SK-OV-3): −4.89
Log10LC50 (SK-OV-3; SK-OV-3 (Ovarian Cancer), LC50: PG=−50): >−4.30 log10M
Log10TGI50 (SK-OV-3; SK-OV-3 (Ovarian Cancer), TGI: PG=0): >−4.30 log10M
Log10LC50 (CAKI-1; CAKI-1 (Renal Cancer), LC50: PG=−50): >−4.30 log10M
Log10TGI50 (CAKI-1; CAKI-1 (Renal Cancer), TGI: PG=0): >−5.99 log10M
Log10GI50 (CAKI-1; Renal Cancer, CAKI-1): −6.84
Log10LC50 (RXF 393; RXF 393 (Renal Cancer), LC50: PG=−50): >−4.30 log10M
Log10TGI50 (RXF 393; RXF 393 (Renal Cancer), TGI: PG=0): −6.77 log10M
Log10GI50 (RXF 393; Renal Cancer, RXF 393): <−8.30
Log10LC50 (PC-3; PC-3 (Prostate Cancer), LC50: PG=−50): >−4.30 log10M
Log10TGI50 (PC-3; PC-3 (Prostate Cancer), TGI: PG=0): >−4.30 log10M
Log10GI50 (PC-3; Prostate Cancer, PC-3): <−8.30
Log10GI50 (NCI/ADR-RES; Breast Cancer, NCI/ADR-RES): −5.64
Log10LC50 (NCI/ADR-RES; NCI/ADR-RES (Breast Cancer), LC50: PG=−50): >−4.30 log10M
Log10TGI50 (NCI/ADR-RES; NCI/ADR-RES (Breast Cancer), TGI: PG=0): >−4.30 log10M
Log10LC50 (BT-549; BT-549 (Breast Cancer), LC50: PG=−50): >−4.30 log10M
Log10TGI50 (BT-549; BT-549 (Breast Cancer), TGI: PG=0): −7.39 log10M
Log10GI50 (BT-549; Breast Cancer, BT-549): −7.91
Log10GI50 (T-47D; Breast Cancer, T-47D): <−8.30
Log10LC50 (T-47D; T-47D (Breast Cancer), LC50: PG=−50): >−4.30 log10M
Log10TGI50 (T-47D; T-47D (Breast Cancer), TGI: PG=0): −4.77 log10M
